Measured values taken from BindingDB's records for patent US10696638 (INDUSTRIAL TECHNOLOGY RESEARCH INSTITUTE, 2020).

Biological target: Rho-associated protein kinase 2 (Homo sapiens, UniProt O75116)
Assay: ELISA Assay
Experimental: ROCK Substrate Coated Plate (Part No 241601): One strip well 96-well plate pre-coated with recombinant MYPT1.Buffer: 25 mM Tris, pH 7.5, 10 mM MgCl2, 5 mM Glycerol-2-Phosphate, 0.1 mM Na3VO4; 1% DMSO; 2.5 mM DTT; (Enzyme: ROCK active-II) (Cell Biolabs, Catalog #STA-406, Part No. 241505) 0.1 ng/μl.ATP Solution (Part No. 241604): 100 mM ATP. Final concentration of ATP in reaction mixture: 250 μM.Anti-phospho-MYPT1 (Thr696) (Part No. 241603).Secondary Antibody, HRP Conjugate (Part No. 231003).Biotinylated substrate, diluted to 0.25 μM with buffer described above (without ATP).Steps:1. Purified kinase or cell lysate sample can be used directly in the kinase assay or further diluted with 1× Kinase Buffer. Each sample should be assayed in duplicate.2. Add 90 μL of the diluted active ROCK-II positive control or unknown ROCK samples to the wells of the substrate plate.3. Initiate the kinase reaction by adding 10 μL of the 10× Kinase Reaction Buffer containing DTT and ATP. Mix well.4. Cover with a plate cover and incubate the wells at 30° C. for 30-60 minutes with gentle agitation.5. Stop kinase reaction by flicking out the content or by adding 50 μL of 0.5M EDTA, pH 8.0, to each well.6. Remove the plate cover and empty wells. Wash microwell strips 3 times with 250 μL 1× Wash Buffer per well with thorough aspiration between each wash. After the last wash, empty wells and tap microwell strips on absorbent pad or paper towel to remove excess 1× Wash Buffer.7. Add 100 μL of the diluted anti-phospho-MYPT1 (Thr696) antibody to each well.8. Cover with the plate cover and incubate at room temperature for 1 hour on an orbital shaker.9. Remove the plate cover and empty wells. Wash the strip wells 3 times according to step 6 above.10. Add 100 μL of the diluted HRP-conjugated secondary antibody to each well.11. Cover with the plate cover and incubate at room temperature for 1 hour on an orbital shaker.12. Remove the plate cover and empty wells. Wash microwell strips 3 times according to step 6 above. Proceed immediately to the next step.13. Warm Substrate Solution to room temperature. Add 100 μL of Substrate Solution to each well, including the blank wells. Incubate at room temperature for 5-20 minutes on an orbital shaker.14. Stop the enzyme reaction by adding 100 μL of Stop Solution into each well, including the blank wells. Results should be read immediately (color will fade over time).15. Read absorbance of each microwell on a spectrophotometer using 450 nm as the primary wave length.

Chain of Rho-associated protein kinase 2 (O75116 whole entry): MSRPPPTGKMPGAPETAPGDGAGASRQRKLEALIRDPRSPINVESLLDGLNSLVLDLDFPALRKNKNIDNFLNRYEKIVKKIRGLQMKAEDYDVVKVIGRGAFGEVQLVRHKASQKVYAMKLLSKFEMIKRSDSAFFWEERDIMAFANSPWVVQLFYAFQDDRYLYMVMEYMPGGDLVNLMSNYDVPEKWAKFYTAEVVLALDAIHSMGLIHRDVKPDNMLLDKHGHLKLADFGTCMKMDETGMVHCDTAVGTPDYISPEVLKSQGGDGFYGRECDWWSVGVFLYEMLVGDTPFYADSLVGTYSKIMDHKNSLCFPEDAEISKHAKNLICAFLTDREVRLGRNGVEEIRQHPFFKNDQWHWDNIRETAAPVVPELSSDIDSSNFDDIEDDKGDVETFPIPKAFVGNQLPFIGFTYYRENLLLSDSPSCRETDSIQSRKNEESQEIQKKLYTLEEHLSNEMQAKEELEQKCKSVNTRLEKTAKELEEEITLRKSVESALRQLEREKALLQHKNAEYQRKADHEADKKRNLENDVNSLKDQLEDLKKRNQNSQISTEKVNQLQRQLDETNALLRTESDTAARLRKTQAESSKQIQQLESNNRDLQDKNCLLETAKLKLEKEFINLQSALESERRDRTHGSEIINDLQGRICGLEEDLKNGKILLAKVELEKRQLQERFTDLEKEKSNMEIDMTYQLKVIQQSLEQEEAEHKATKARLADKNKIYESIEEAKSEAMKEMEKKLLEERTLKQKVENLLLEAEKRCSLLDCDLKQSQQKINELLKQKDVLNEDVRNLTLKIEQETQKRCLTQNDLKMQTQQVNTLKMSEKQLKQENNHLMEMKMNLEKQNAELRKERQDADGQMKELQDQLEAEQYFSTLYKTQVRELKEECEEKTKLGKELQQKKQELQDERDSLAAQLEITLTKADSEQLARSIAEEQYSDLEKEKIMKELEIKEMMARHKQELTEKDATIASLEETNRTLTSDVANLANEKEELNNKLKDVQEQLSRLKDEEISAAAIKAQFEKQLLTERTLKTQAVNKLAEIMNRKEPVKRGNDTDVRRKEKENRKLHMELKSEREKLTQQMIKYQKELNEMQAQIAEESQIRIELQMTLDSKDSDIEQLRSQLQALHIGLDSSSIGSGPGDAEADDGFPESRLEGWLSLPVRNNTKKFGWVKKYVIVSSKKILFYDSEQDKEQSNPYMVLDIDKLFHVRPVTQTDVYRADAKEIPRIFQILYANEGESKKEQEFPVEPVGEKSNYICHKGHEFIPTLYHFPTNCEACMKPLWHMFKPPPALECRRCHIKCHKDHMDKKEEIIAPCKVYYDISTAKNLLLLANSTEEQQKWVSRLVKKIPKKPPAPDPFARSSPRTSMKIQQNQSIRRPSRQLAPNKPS

Row | IC50 [µM] | SMILES
1 | > 1 | CN(C)CCN(Cc1ccc(F)cc1)C(=O)Nc1ccc2cnccc2c1 [US10696638, Table 1.2]
2 | > 1 | O=C(Nc1ccc2cnccc2c1)N[C@@H](CO)c1ccccc1 [US10696638, Table 1.6]
3 | > 1 | O=C(Nc1cccc2cnccc12)N[C@@H](CO)c1ccccc1 [US10696638, formula (I) 4]
4 | > 1 | CN(C)CCN(Cc1ccc(F)cc1)C(=O)Nc1cccc2cnccc12 [US10696638, formula (I) 5]
5 | > 1 | O=C(Nc1cccc2cnccc12)N(Cc1ccc(Cl)cc1)C1CCNCC1 [US10696638, formula (I) 9]
